# Measured values taken from article PMC6104039 (Nature Communications, 2018).
# “Also recorded” adds a separate entry of the source.
# Columns and labels:
# [1] = Detection of P053-phosphate in plasma of dosed mice, LC-MS/MS; format: in vivo; settings: 5 mg/kg/day for 6 weeks
# Procedure: LC-MS/MS was performed on a TSQ Quantum Access triple quadrupole mass spectrometer in positive ion mode, coupled to an Accela UPLC system (Thermo Scientific). Extracts (20 μL) were separated on a 2 × 100 mm Eclipse XDB-C8 column with 1.8 μm particle size (Agilent Technologies), using a 7.5 min binary HPLC gradient: 0 min, 70% B ([…]); 1.5 min, 70% B; 3.5 min, 95% B; 4 min, 95% B; 4.5 min, 70% B; 7.5 min 70% B. Mobile phase A: 2 mM ammonium formate/1% formic acid in water; mobile phase B: 1 mM ammonium formate/1% formic acid in methanol. The flow rate was 0.4 mL min^−1, increasing to 0.5 mL min^−1 from 5–7 min, and column oven 30 °C. […] Visualisation and quantification of peaks was performed using Thermo Fisher’s XCalibur software v2.2.
# Supplementary Figure 8. P053 is not phosphorylated in situ or in vivo. (a-b) HEK293 cells […]
# LC-MS/MS analysis. Chromatograms for (a) FTY720 and its phosphate, and (b) P053 and its putative phosphate are shown. […]
# mg/kg/day for 6 weeks, corresponding to a plasma concentration of ~300 nM. No peak is […]
# (1 picture or pasted object on this page, not shown here)
# [2] = test system: C57BL6/J mice; test: Food intake; settings: mouse, in vivo
# [3] = test system: C57BL6/J mice; test: Oral glucose tolerance test with labelled glucose and fasting insulin; format: in vivo; settings: 5 mg/kg, chow or HFD
# Procedure: Mice were fasted for 6 h, then received 50 mg stable isotope-labeled glucose (6,6-^2H glucose, Sigma Aldrich) by oral gavage. Blood glucose was measured with a glucose meter (Accu-Check, Roche, NSW, Australia) prior to and at 15, 30, 45, 60 and 90 min following gavage. Additional blood (~10 μL) was collected from the tail tip prior to and at 15 and 60 min following glucose gavage. These samples were used to perform mass isotopologue analysis of plasma glucose via gas chromatography–mass spectrometry (GC–MS)[70]. Specifically, plasma glucose was separated into the labelled glucose load and the endogenous (liver/kidney-derived) unlabelled glucose to permit differentiation of glucose disposal from endogenous glucose production (Supplementary Figure 10). Fasting blood insulin was measured using an Ultrasensitive Mouse Insulin ELISA Kit (Crystal Chem, Illinois, USA). […]
# endogenous glucose synthesis. Plasma concentration of (a) labelled glucose resulting from an oral glucose load, and (b) endogenous glucose, during the oral glucose tolerance test. Mice
# [4] = test system: soleus muscles; test: 14C-palmitate oxidation and incorporation into TAG in isolated soleus muscles of treated mice; format: in vivo
# Procedure: After a 30 min pre-incubation, muscles were transferred into vials containing 0.5 mCi/mL of [1-^14C]-palmitate in modified Krebs-Henseleit buffer for another 1 h. The reaction was stopped by removal of the muscles and addition of 1 M perchloric acid to the reaction mixture. ^14C-labelled CO2 was quantified as described above. The muscles were blotted dry and snap frozen in liquid nitrogen for subsequent lipid extraction and TLC. Muscles were homogenized using a Polytron (Kinematica, Littau-Lucerne, Switzerland) in 1.5 mL 2:1 chloroform-methanol (v/v). […] The upper aqueous phase was used to quantify ASM, and the lower organic phase was collected and dried under stream of N2, then reconstituted in hexane and spotted on a Silica Gel 60 F254 TLC plate. The TLC plate was developed in hexane/diethyl ether/glacial acetic acid (85:15:1), then air dried. TAG bands were visualised using iodine vapour staining, using an external standard to mark their position, then scraped into vials and quantified by liquid scintillation counting.
# [5] = test system: PPAR alpha; test: PMP70 protein expression in liver lysates (PPAR alpha agonism); format: in vivo, mice
# Text: For PPAR alpha we have examined the protein expression of
# PMP70 (an abundant peroxisomal m embrane protein) in liver lysates, as PPAR alpha is much more
# highly expressed in liver and we have clear evidence (Supplementary Fig 6) that P053 distributes
# into liver at levels that are higher that those present in skeletal muscle.
# treated with a known PPAR alpha agonist WY14643 (WY) vs. vehicle (veh) controls shown on the
# right of the gel as positive controls.
# [6] = test system: HEK293 cells; test: Non-viable cells by propidium iodide staining and flow cytometry, 72 h; format: cell-based; settings: at or below 1 μM
# Procedure: Lipid levels are expressed as a percentage of vehicle control levels. […] All graphs show combined data from two independent experiments, each with 3 (a) or 4 (b-d) separate cell treatments, mean ± SEM. Statistical significance in (b-d) was determined by t-tests adjusted for multiple comparisons, comparing all lipids (22 lipids tested in total) at each concentration to the control group; ^+P < 0.05; ^#P < 0.01; *P < 0.001
structure (smiles),measurement,setting,value
"C[C@@](N)(CO)CCc1ccc(OCc2ccc(Cl)c(Cl)c2)cc1 [P053, (S)-2-amino-4-(4-(3,4-dichlorobenzyloxy)phenyl)-2-methylbutan-1-ol]",phosphate of the compound in plasma of mice,[1],only background signal is detected; also recorded: not detected
same,food intake,[2],not due to any effect of P053 on food intake
same,fasting insulin and glucose tolerance,[3],no impact
same,iAUC for the labelled glucose load,[3],no effect
same,oxidation of 14C-palmitate in soleus muscles,"[4]; 2 weeks, 5 mg/kg",significantly increased
same,incorporation of 14C-palmitate into TAG,"[4]; 2 weeks, 5 mg/kg, 1 h incubation",unchanged
same,increase of the rate of palmitate oxidation in muscle,[4]; P053 treatment,23%
same,expression of PMP70,[5],unaffected
same,HEK293 cell viability,[6],no effect
